Experimental data reported in patent US9643968B2, “Fused acridine derivative and pharmaceutical composition, preparation method and use thereof” (Peking University, priority 2014, dated 2017).

Assays:
tumor cells (U87MG) = test: Assay for inhibiting cancer cell clone formation (soft agar); format: cell-based, human; conditions: concentration range from 0.020 to 0.090 μM, 10-14 days
Description: Materials and methods: The tested tumor cells (U87MG) in the logarithmic phase were digested with 0.25% trypsin then percussed gently to the single cell state, and counted the live cells. The cells density was adjusted to 1×10^6[…] with DMEM containing 20% fetal bovine serum, and then diluted gradiently according to the experiment requirement.
Two concentrations (1.2% and 0.7%) of low melting point agarose fluid were prepared with distilled water respectively. A mixture of 1.2% agarose fluid and 2×DMEM medium (contains 2× antibiotics and 20% calf serum) was prepared in 1:1 ratio, then transferred (3 mL) into 6 cm diameter flat dishes, cooled to solidification to furnish the bottom agar which was stored in a CO2 incubator. The cell suspension (0.2 mL) was added to a mixture of 0.7% agarose and 2×DMEM medium which was prepared in 1:1 ratio in sterile tubes, and thoroughly mixed before injection to the precoated dishes to form the double layer agar. After the upper agar being solidified, the dishes were incubated in 37° C. and 5% CO2 for 10-14 days, each experiment was performed in 3-6 times.
The number of clones was counted under an inverted microscope. The clone formation rate was calculated.

U87MG cells = test: In vivo antitumor activity test, U87MG subcutaneous xenograft; parameters: species or system BALB/c nude mice; conditions: oral qd × 5/w; for tumor inhibition rate (IR): 10 doses, by tumor weight
Description: (§1) Animals: Female 6-8 weeks BALB/c nude mice weighed 16 to 18 g. They were raised at SPF-level animal room with a 12 h light-dark cycle; drinking and eating were provided ad libitum.
(§2) Under aseptic conditions, U87MG cells in the logarithmic phase were digested and its density was adjusted. U87MG cells were inoculated hypodermically in BALB/c nude mice, 0.1 mL for each mouse. The diameter of the transplantation was measured with a Vernier caliper. After their tumor size was about 100-200 mm^3, 36 mice were randomly divided into 5 groups according to the tumor size. The mice of each group was orally administered the dose respectively according to the above-mentioned schedule, and the mice of the vehicle group were given same dose of saline. The first day of dosing named for D1. The long diameter and short diameter of the tumor size of each mouse were measured twice a week, and the body weights were recorded at the same time.
Indicators were observed, measured, and recorded from the first day of dosing. The tumor size was measured using a Vernier caliper to calculate tumor volume change and the tumor growth. After the tumor-burdened mice were executed and dissected, the tumor tissues were separated, and weighed.
(§3) Indicators for antitumor efficacy evaluation including: relative tumor inhibition rate, body weight, general state of the mice and related toxicity index. Curves of tumor growth and body weight change of every group were plotted at the end of the experiment.
The calculation formula for tumor volume (TV) is: TV=½×a×b^2, where a and b means long diameter and short diameter of the tumor size respectively.
Tumor inhibition rate IR (%)=(1−TTW/CTW)×100%, TTW: TW of the treatment group; CTW: TW of the control group.
Statistical analysis: Data were analyzed using SPSS 11.0 with Student t-test for comparisons and ANOVA. P-values <0.05 were considered significant.

[1] = Body weight in U87MG tumor-bearing mice; format: in vivo, BALB/c nude mice; conditions: oral qd × 5/w
Description: as §1, §2, §3

[2] = system: HCT116 (human colon cancer cell); test: MTT in vitro cytotoxicity, HCT116; format: cell-based; conditions: HCT-116, 72 hr incubation
Description: (§4) Materials and methods: MTT (3-[4,5-dimethylthiazol-2-yl]-diphenyl tetrazolium bromide) method was employed to determine the antiproliferative activity of all the compounds of the Examples and Contrasting Examples in vitro against selected cell lines, including HCT116 (human colon cancer cell), PC-3 (human prostate cancer), HepG2 (human hepatocellular carcinoma), SK-OV-3 (human ovarian adenocarcinoma), MCF-7 (human breast cancer), U87MG (human glioblastoma cell) cell lines.
(§5) Procedure: Human tumor cells of HCT116, PC-3, HepG2, SK-OV-3, MCF-7, and U87MG were in vitro cultured, and collected until the cells grow to the logarithmic phase. The cells were centrifuged for 5 minutes at 1000 rpm, and supernatant was discarded. Subsequently appropriate culture medium was added to suspend the precipitation, and the concentration of cells was adjusted to 3.5˜5.5×10^4/mL. the suspensions of cells were seeded in 96-well microplate at 100 μL per well, and incubated in incubator (37° C., 5% CO2) for 24 hr. The compound to test was added. For the control group, equivalent concentration of DMSO (final concentration 0.5%) was added. For each group, three copy wells were set. After incubated for 72 hr, 20 μL 5 mg/mL of MTT was added into each well, and placed at 37° C. for 3 hr. 150 μL of DMSO was added into each wells, and vibrated the shaker at 37° C. for 5 mins, then measured the absorbance (OD) value at 492 nm/620 nm. The IC50 values were calculated using Prism 5.0 software.

[3] = system: HepG2 (human hepatocellular carcinoma); test: MTT in vitro cytotoxicity, HepG2; format: cell-based; conditions: 72 hr incubation
Description: as §4, §5

[4] = system: MCF-7 (human breast cancer); test: MTT in vitro cytotoxicity, MCF-7; format: cell-based; conditions: MCF7, 72 hr incubation
Description: as §4, §5

COc1ccc2nc3c(C)ccc4c3c(c2c1)C(=O)N4CCN(C)C.O=C(O)/C=C/C(=O)O [Compound 5c′, 2-(2-(dimethylamino)ethyl)-9-methoxy-5-methylpyrrolo[2,3,4-kl]-acridin-1-(2H)-one fumarate]
inhibition of glioma cell clone formation (tumor cells (U87MG)): significantly inhibited | tumor size compared with the vehicle (U87MG cells; high dose group (80 mg/kg)): significantly smaller than the vehicle | tumor inhibition rate (IR) (U87MG cells; high dose group (80 mg/kg)): 91% | tumor size compared with the vehicle (U87MG cells; median dose group (40 mg/kg)): significantly smaller than the vehicle | tumor inhibition rate (IR) (U87MG cells; median dose group (40 mg/kg)): 69% | animal weight compared with the vehicle ([1]; high dose group (80 mg/kg)): grew slowly compared with the vehicle | animal weight loss compared with the positive control (TMZ) group ([1]; high dose group (80 mg/kg)): significantly lower than the positive control | animal weight compared with the vehicle ([1]; median dose group (40 mg/kg)): grew slowly compared with the vehicle

CN(C)CCCN1C(=O)c2c3cc(I)ccc3nc3cccc1c23 [Compound 7d, 2-(3-(dimethylamino)propyl)-9-iodopyrrolo[2,3,4-kl]acridin-1-(2H)-one]
IC50 [2]: 2640 nM | IC50 [3]: 3780 nM | IC50 [4]: 2800 nM

CN(C)CCN1C(=O)c2c3cc(Br)ccc3nc3cccc1c23 [Compound 7a, 9-bromo-2-(2-(dimethylamino)ethyl)pyrrolo[2,3,4-kl]acridin-1-(2H)-one]
IC50 [2]: 1870 nM | IC50 [3]: 1850 nM | IC50 [4]: 1970 nM

Cn1nnc2c(C(N)=O)ncn2c1=O [TMZ, Temozolomide, reference compound]
animal weight compared with the vehicle ([1]; 50 mg/kg): significant lower compared with the vehicle

CN(C)CCCN1C(=O)c2c3cc(Br)ccc3nc3cccc1c23 [Compound 7b, 9-bromo-2-(3-(dimethylamino)propyl)pyrrolo[2,3,4-kl]acridin-1-(2H)-one]
IC50 [2]: 2280 nM | IC50 [3]: 3840 nM | IC50 [4]: 2150 nM
